Tests used:
[1] = test system: DU145 tumor cells; test: MTT growth inhibition of DU145 cells, 72 h; type: cell-based, human; settings: for IC50 / IC90: DU145, 72 h, MTT
Protocol: DU145 cells were inoculated in RPM11640 medium containing 10% calf serum, incubated at 37° C., 5% CO2 in CO2 incubator, and passaged every 2-3 days. In this experiment, cells were grown in logarithmic growth phase.
In the experiment, the cells at logarithmic growth phase were formulated into suspension, and the viability by trypan blue staining was more than 98%. The suspension was divided into several groups: 1 as blank control group (cell suspension); and 2 as experimental groups (cell suspension plus drugs).
(§1) The drugs were formulated into a stock solution in DMSO, and the concentration of the stock solution was 20 mmol (used within 4 hours). In the experiment, the work solution of the drugs was diluted with RPM11640 medium containing 10% calf serum under aseptic condition, to a final concentration of 80 μM. The drug concentrations were increased by 2 times (1.25-20 μM).
(§2) The DU145 cell in logarithmic growth phase were selected, centrifuged, counted, and formulated into a cell suspension (2.5×10^4/ml) with RPM11640 medium containing 10% calf serum. The cell suspension were inoculated into 96-well plates at a density of 5000 cells/200 μl per well, incubated for 24 hours at 37° C., 5% CO2. According to the above concentration of the drug, the cells were inoculated to 6 groups (including one control group), with 8 wells per group. After incubating for 72 hours, the viability of cells was measured by MTT assay. The absorbance value (A) was measured with detection wavelength at 540 nm, reference wavelength at 630 nm. The inhibitory rate (I) was calculated by the following equation, where T was the absorbance value of the experimental groups, and C was the absorbance value of the blank control group: I=(1−T/C)×100%
(§3) The regression equation was calculated by the concentration-inhibitory rate curve, to obtain 50% and 90% inhibition concentration (IC50 and IC90, μM).

[2] = test system: mouse melanoma cell line K111; test: MTT growth inhibition of K111 cells; type: cell-based; settings: Klll, read-out: IC50 (μM) Tumor cells Klll
Protocol: as §1, §2, §3
(§4) 1. Tumor Cells: human hepatoma cell lines 7701 QGY and HepG-2, human lung adenocarcinoma cell line A549, human chronic myelocytic leukemia cell line K562, human leukemia cell line CEM and mouse melanoma cell line K111.
(§5) 2. Using the methods described in example 2, the biological activity of a portion of newly synthesized 5- or 7-azaindirubin derivatives and 5- or 7-azaisoindigo derivatives (20 compounds) for inhibiting various tumor cells growth were determined.

[3] = test system: human hepatoma cell line 7701 QGY; test: MTT growth inhibition of 7701 QGY cells; type: cell-based; settings: read-out: IC50 (μM) Tumor cells 7701 QGY
Protocol: as §1, §2, §3, §4, §5

[4] = test system: human lung adenocarcinoma cell line A549; test: MTT growth inhibition of A549 cells; type: cell-based; settings: read-out: IC50 (μM) Tumor cells A549
Protocol: as §1, §2, §3, §4, §5

[5] = test system: human leukemia cell line CEM; test: MTT growth inhibition of CEM cells; type: cell-based; settings: read-out: IC50 (μM) Tumor cells CEM
Protocol: as §1, §2, §3, §4, §5

[6] = test system: human chronic myelocytic leukemia cell line K562; test: MTT growth inhibition of K562 cells; type: cell-based; settings: read-out: IC50 (μM) Tumor cells K562
Protocol: as §1, §2, §3, §4, §5

[7] = test system: human hepatoma cell line HepG-2; test: MTT growth inhibition of HepG-2 cells; type: cell-based; settings: HepG-2, MTT; read-out: IC50 (μM) Tumor cells HepG-2
Protocol: as §1, §2, §3, §4, §5

[8] = Homo sapiens, DU-145, 72 h, Table 5
[9] = Homo sapiens, DU-145, 72 h, Table 6

Compound	IC50 ([1]; Table 5)	IC90 ([1]; Table 5)	IC50 ([1]; Table 6)	IC90 ([1]; Table 6)	other results
CC(C)N1C(=O)C(=C2Nc3ccccc3C2=O)c2cnccc21 [Compound 7]	> 100 µM				
CCCCN1C(=O)C(=C2Nc3ccccc3C2=O)c2cnccc21 [Compound 8]	11.5 µM	39 µM			
O=C1C(=C2C(=O)N(Cc3ccccc3)c3ccncc32)Nc2ccccc21 [Compound 9]	12 µM	85 µM			
CCN1C(=O)C(=C2Nc3ccc(Br)cc3C2=O)c2cnccc21 [Compound 12]	8.8 µM	28 µM			
CC(C)N1C(=O)C(=C2Nc3ccc(Cl)cc3C2=O)c2cnccc21 [Compound 15]	9 µM	48 µM			
CN1C(=O)C(=C2Nc3ccc(Cl)cc3C2=NO)c2cnccc21 [Compound 25]	1.7 µM	12.2 µM			growth inhibitory effects on tumor cells (in words) ([1]; discussion of the MTT assay, DU145): relatively significant growth inhibitory effects
CCN1C(=O)C(=C2Nc3ccc(Br)cc3C2=NO)c2cnccc21 [Compound 28]	4.5 µM	14 µM			
CCN1C(=O)C(=C2Nc3ccc(Cl)cc3C2=NO)c2cnccc21 [Compound 29]	2.2 µM	6.8 µM			
CC(C)N1C(=O)C(=C2Nc3ccc(Cl)cc3C2=NO)c2cnccc21 [Compound 31]	3.7 µM	11.5 µM			
O=C1C(=C2Nc3ccc(Cl)cc3C2=NO)c2cnccc2N1Cc1ccccc1 [Compound 35]	7.3 µM	20 µM			
CCN1C(=O)C(=C2Nc3ccccc3C2=NO)c2cnccc21 [Compound 38]	6.4 µM	22 µM			
CN1C(=O)C(=C2C(=O)Nc3ccc(F)cc32)c2cnccc21 [Compound 63]	48 µM	> 100 µM			
CC(=O)OCC1OC(N2C(=O)C(=C3C(=O)Nc4ccccc43)c3cnccc32)C(OC(C)=O)C1OC(C)=O (stereo not drawn) [Compound 67]	8 µM	44 µM			
CCCCN1C(=O)C(=C2C(=O)Nc3ccccc32)c2cnccc21 [Compound 78]	16 µM	51 µM			
CCCCN1C(=O)C(=C2C(=O)Nc3ccc(Br)cc32)c2cnccc21 [Compound 79]	14.5 µM	77 µM			
CCCCN1C(=O)C(=C2C(=O)Nc3ccc(F)cc32)c2cnccc21 [Compound 82]	> 100 µM	> 100 µM			

Compound	IC50 ([1]; Table 5)	IC90 ([1]; Table 5)	IC50 ([1]; Table 6)	IC90 ([1]; Table 6)	other results
CCN1C(=O)/C(=C2\Nc3ccccc3C2=O)c2ccccc21 [Compound 90, 1-ethyl-indirubin, reference compound]					IC50 [1, 8]: 7.2 µM; IC90 [1, 8]: 31 µM; IC50 [1, 9]: 7 µM; IC90 [1, 9]: 30 µM
COc1ccc2c(c1)C(=O)C(=C1C(=O)N(C)c3ncc(C)cc31)N2 [Compound 95]			400 µM	> 100 µM	IC50 [2]: 15.6 µM; IC50 [3]: 23.9 µM; IC50 [4]: 35.2 µM; IC50 [5]: 9 µM; IC50 [6]: 8.1 µM; IC50 [7]: 50.1 µM
CC(C)N1C(=O)C(=C2Nc3ccccc3C2=O)c2cccnc21 [Compound 98]			> 100 µM		
CCCCN1C(=O)C(=C2Nc3ccccc3C2=O)c2cccnc21 [Compound 99]			11.5 µM	87 µM	IC50 [2]: 10.1 µM; IC50 [3]: 12.4 µM; IC50 [4]: 18.4 µM; IC50 [5]: 7.1 µM; IC50 [6]: 6.7 µM; IC50 [7]: 29.3 µM
O=C1C(=C2C(=O)N(Cc3ccccc3)c3ncccc32)Nc2ccccc21 [Compound 100]			9.5 µM	31.5 µM	
CN1C(=O)C(=C2Nc3ccc(Br)cc3C2=O)c2cccnc21 [Compound 101]			11.5 µM	60 µM	IC50 [2]: 23 µM; IC50 [3]: 15 µM; IC50 [4]: 21.6 µM; IC50 [5]: 12 µM; IC50 [6]: 7.8 µM; IC50 [7]: 28.8 µM
CC(C)N1C(=O)C(=C2Nc3ccc(Br)cc3C2=O)c2cccnc21 [Compound 105]			8.1 µM	28.5 µM	IC50 [2]: 11.9 µM; IC50 [3]: 13.4 µM; IC50 [4]: 24.1 µM; IC50 [5]: 8 µM; IC50 [6]: 19 µM; IC50 [7]: 32 µM
CCCCN1C(=O)C(=C2Nc3ccc(Br)cc3C2=O)c2cccnc21 [Compound 107]			14 µM	26 µM	
O=C1C(=C2C(=O)N(Cc3ccccc3)c3ncccc32)Nc2ccc(Br)cc21 [Compound 109, 1-benzyl-5′-bromo-7-azaindirubin]			7 µM	24 µM	IC50 [2]: 18.6 µM; IC50 [3]: 10 µM; IC50 [4]: 15.8 µM; IC50 [5]: 9 µM; IC50 [6]: 12.5 µM; IC50 [7]: 21.2 µM
CNc1cnc2c(c1)C(=C1Nc3ccc(F)cc3C1=O)C(=O)N2Cc1ccccc1 [Compound 111]			7.4 µM	34 µM	IC50 [2]: 15.1 µM; IC50 [3]: 28.5 µM; IC50 [4]: 24.3 µM; IC50 [5]: 11 µM; IC50 [6]: 15 µM; IC50 [7]: 17 µM
CC(C)N1C(=O)C(=C2Nc3ccc(Cl)cc3C2=NO)c2cccnc21 [Compound 122]			8 µM	25 µM	
CCCCN1C(=O)C(=C2Nc3ccc(Br)cc3C2=NO)c2cccnc21 [Compound 123]			3.7 µM	5 µM	
CC(C)N1C(=O)C(=C2Nc3ccccc3C2=NO)c2cccnc21 [Compound 130]			7.05 µM	17 µM	
CCCCN1C(=O)C(=C2Nc3ccccc3C2=NO)c2cccnc21 [Compound 131, 1-butyl-7-azaindirubin-3′-oxime]			16 µM	80 µM	
O=C1Nc2ccc(Br)cc2C1=C1C(=O)N(Cc2ccccc2)c2ncccc21 [Compound 176]					IC50 [2]: 8.3 µM; IC50 [3]: 13.7 µM; IC50 [4]: 13.2 µM; IC50 [5]: 7.4 µM; IC50 [6]: 4.1 µM; IC50 [7]: 20.6 µM
CC1=C(/C=C/C(C)=C/C=C/C(C)=C/C(=O)O)C(C)(C)CCC1 [all-trans retinoic acid, reference compound]					IC50 [1, 8]: > 50 µM; IC50 [1, 9]: > 50 µM

Further lines, with some results ahead:

IC50 ([1]; Table 5)	IC90 ([1]; Table 5)	IC50 ([1]; Table 6)	IC90 ([1]; Table 6)	Compound	other results
17 µM	87 µM			CCN1C(=O)C(=C2C(=O)Nc3ccc(F)cc32)c2cnccc21 [Compound 71]	
9.7 µM	29 µM			CC(C)N1C(=O)C(=C2C(=O)Nc3ccc(Cl)cc32)c2cnccc21 [Compound 75]	
		8 µM	18 µM	CN1C(=O)C(=C2Nc3ccc(Cl)cc3C2=O)c2cccnc21 [Compound 102]	IC50 [2]: 18.2 µM; IC50 [3]: 39.5 µM; IC50 [4]: 22.8 µM; IC50 [5]: 7 µM; IC50 [6]: 9.5 µM; IC50 [7]: 41.5 µM
		10 µM	32.2 µM	CCN1C(=O)C(=C2Nc3ccc(Br)cc3C2=O)c2cccnc21 [Compound 103]	
		8.5 µM	45 µM	CCN1C(=O)C(=C2Nc3ccc(Cl)cc3C2=O)c2cccnc21 [Compound 104]	
		18.5 µM	100 µM	CC(C)N1C(=O)C(=C2Nc3ccc(Cl)cc3C2=O)c2cccnc21 [Compound 106]	IC50 [2]: 14 µM; IC50 [3]: 28 µM; IC50 [4]: 19.6 µM; IC50 [5]: 10.2 µM; IC50 [6]: 20.4 µM; IC50 [7]: 18 µM
		11 µM	42 µM	CCCCN1C(=O)C(=C2Nc3ccc(Cl)cc3C2=O)c2cccnc21 [Compound 108]	
		5.4 µM	61 µM	CCN1C(=O)C(=C2Nc3ccc(Cl)cc3C2=NO)c2cccnc21 [Compound 120]	
		14 µM	45 µM	CCN1C(=O)C(=C2C(=O)Nc3ccc(Cl)cc32)c2cccnc21 [Compound 161]	
		17.5 µM	89 µM	CCN1C(=O)C(=C2C(=O)Nc3ccc(F)cc32)c2cccnc21 [Compound 162]	
		8.3 µM	28 µM	CC(C)N1C(=O)C(=C2C(=O)Nc3ccc(Br)cc32)c2cccnc21 [Compound 165]	
		10 µM	31.5 µM	CC(C)N1C(=O)C(=C2C(=O)Nc3ccc(Cl)cc32)c2cccnc21 [Compound 166]	
		14 µM	47 µM	CCCCN1C(=O)C(=C2C(=O)Nc3ccccc32)c2cccnc21 [Compound 169]	
		9 µM	46 µM	CCCCN1C(=O)C(=C2C(=O)Nc3ccc(Cl)cc32)c2cccnc21 [Compound 171]	
		> 100 µM	> 100 µM	CCCCN1C(=O)C(=C2C(=O)Nc3ccc(F)cc32)c2cccnc21 [Compound 173]	

Reference: patent US8642765B2, “Azaindole-indole coupled derivatives, preparation methods and uses thereof” (priority 2007, dated 2014)
